Measured values taken from paper PMC6421522, “Designing Dual Inhibitors of Anaplastic Lymphoma Kinase (ALK) and Bromodomain-4 (BRD4) by Tuning Kinase Selectivity” (Journal of Medicinal Chemistry, 2019).

How the values were obtained:
ALK WT = ALK WT (Homo sapiens, UniProt Q9UM73); assay: Biochemical ALK WT IC50; assay type: binding; conditions: geometric mean
PAMPA permeability assay = assay type: in vitro ADME; conditions: pH 7.4
Text: Table 3 Physicochemical Properties of 16k | column: result

CSF1R = molecular target: T1, CSF1R (Homo sapiens, UniProt P07333); assay: KINOMEscan scanEDGE; assay type: binding; conditions: read-out: % Control (1µM)
T1 construct: purchased DiscoveRx KINOMEscan (scanEDGE); Thermo Fisher SelectScreen (Z'-LYTE) for PLK-1
T1 sequence (P07333 20-972): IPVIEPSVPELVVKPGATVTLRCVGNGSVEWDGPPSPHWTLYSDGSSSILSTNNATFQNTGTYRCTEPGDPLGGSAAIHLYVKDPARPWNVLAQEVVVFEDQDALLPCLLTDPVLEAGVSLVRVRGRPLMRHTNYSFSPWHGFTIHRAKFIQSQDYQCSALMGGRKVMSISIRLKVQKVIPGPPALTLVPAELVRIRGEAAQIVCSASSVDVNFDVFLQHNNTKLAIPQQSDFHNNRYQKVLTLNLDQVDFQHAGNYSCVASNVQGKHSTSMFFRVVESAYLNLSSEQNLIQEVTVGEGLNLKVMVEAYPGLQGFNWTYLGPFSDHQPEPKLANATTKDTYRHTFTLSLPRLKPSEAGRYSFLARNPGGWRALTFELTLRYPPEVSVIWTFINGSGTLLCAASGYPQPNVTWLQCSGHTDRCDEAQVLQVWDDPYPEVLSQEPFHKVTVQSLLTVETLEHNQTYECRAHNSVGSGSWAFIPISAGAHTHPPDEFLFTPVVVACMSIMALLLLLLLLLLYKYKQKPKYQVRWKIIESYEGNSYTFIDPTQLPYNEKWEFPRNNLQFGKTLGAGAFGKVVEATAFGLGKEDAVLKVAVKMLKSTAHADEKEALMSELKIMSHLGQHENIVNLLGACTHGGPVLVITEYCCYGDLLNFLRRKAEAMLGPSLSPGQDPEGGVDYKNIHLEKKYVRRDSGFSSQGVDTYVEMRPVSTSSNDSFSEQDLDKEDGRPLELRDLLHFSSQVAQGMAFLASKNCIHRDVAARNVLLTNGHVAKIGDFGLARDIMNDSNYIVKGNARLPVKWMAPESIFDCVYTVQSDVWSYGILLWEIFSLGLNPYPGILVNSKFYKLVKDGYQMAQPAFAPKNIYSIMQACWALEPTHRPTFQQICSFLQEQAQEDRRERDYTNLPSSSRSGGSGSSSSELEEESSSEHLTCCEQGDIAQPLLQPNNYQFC
Protocol: (§1) Compound X was assayed at 1 μM in the DiscoveRx KINOMEscan (scanEDGE) assay platform. The results for single-concentration binding interactions are reported as “%Ctrl” (DMSO = 100%Ctrl), where lower numbers indicate stronger hits.

[1] = molecular target: T2, TYK2(JH1domain-catalytic) (Homo sapiens, UniProt P29597); assay: KINOMEscan scanEDGE; assay type: binding; conditions: read-out: % Control (1µM)
T2 construct: TYK2(JH1domain-catalytic); purchased DiscoveRx KINOMEscan (scanEDGE); Thermo Fisher SelectScreen (Z'-LYTE) for PLK-1
T2 sequence (P29597 897-1176 limits assumed): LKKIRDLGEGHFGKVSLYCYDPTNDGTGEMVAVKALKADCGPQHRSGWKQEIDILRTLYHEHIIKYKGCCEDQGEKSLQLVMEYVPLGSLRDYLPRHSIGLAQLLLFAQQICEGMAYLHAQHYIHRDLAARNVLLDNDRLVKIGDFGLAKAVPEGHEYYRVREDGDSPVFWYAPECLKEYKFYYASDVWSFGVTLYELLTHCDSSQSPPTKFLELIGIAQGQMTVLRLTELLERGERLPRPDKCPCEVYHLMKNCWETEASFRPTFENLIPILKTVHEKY
Protocol: as §1

ERBB4 = molecular target: T3, ERBB4 (Homo sapiens, UniProt Q15303); assay: KINOMEscan scanEDGE; assay type: binding; conditions: read-out: % Control (1µM)
T3 construct: purchased DiscoveRx KINOMEscan (scanEDGE); Thermo Fisher SelectScreen (Z'-LYTE) for PLK-1
Protocol: as §1

[2] = molecular target: T4, JAK2(JH1domain-catalytic) (Homo sapiens, UniProt O60674); assay: KINOMEscan scanEDGE; assay type: binding; conditions: read-out: % Control (1µM)
T4 construct: JAK2(JH1domain-catalytic); purchased DiscoveRx KINOMEscan (scanEDGE); Thermo Fisher SelectScreen (Z'-LYTE) for PLK-1
Protocol: as §1

RAF1 = molecular target: T5, RAF1 (Homo sapiens, UniProt P04049); assay: KINOMEscan scanEDGE; assay type: binding; conditions: read-out: % Control (1µM)
T5 construct: purchased DiscoveRx KINOMEscan (scanEDGE); Thermo Fisher SelectScreen (Z'-LYTE) for PLK-1
Protocol: as §1

PIK3C2B = molecular target: T6, PIK3C2B (Homo sapiens, UniProt O00750); assay: KINOMEscan scanEDGE; assay type: binding; conditions: read-out: % Control (1µM)
T6 construct: purchased DiscoveRx KINOMEscan (scanEDGE); Thermo Fisher SelectScreen (Z'-LYTE) for PLK-1
Protocol: as §1

PAK1 = molecular target: T7, PAK1 (Homo sapiens, UniProt Q13153); assay: KINOMEscan scanEDGE; assay type: binding; conditions: read-out: % Control (1µM)
T7 construct: purchased DiscoveRx KINOMEscan (scanEDGE); Thermo Fisher SelectScreen (Z'-LYTE) for PLK-1
Protocol: as §1

PIK3CG = molecular target: T8, PIK3CG (Homo sapiens, UniProt P48736); assay: KINOMEscan scanEDGE; assay type: binding; conditions: read-out: % Control (1µM)
T8 construct: purchased DiscoveRx KINOMEscan (scanEDGE); Thermo Fisher SelectScreen (Z'-LYTE) for PLK-1
Protocol: as §1

KIT(D816V) = molecular target: T9, KIT(D816V) (Homo sapiens, UniProt P10721, D816V); assay: KINOMEscan scanEDGE; assay type: binding; conditions: read-out: % Control (1µM)
T9 construct: purchased DiscoveRx KINOMEscan (scanEDGE); Thermo Fisher SelectScreen (Z'-LYTE) for PLK-1
Protocol: as §1

FLT3 = molecular target: T10, FLT3 (Homo sapiens, UniProt P36888); assay: KINOMEscan scanEDGE; assay type: binding; conditions: read-out: % Control (1µM)
T10 construct: purchased DiscoveRx KINOMEscan (scanEDGE); Thermo Fisher SelectScreen (Z'-LYTE) for PLK-1
Protocol: as §1

BRAF(V600E) = molecular target: T11, BRAF(V600E) (Homo sapiens, UniProt P15056, V600E); assay: KINOMEscan scanEDGE; assay type: binding; conditions: read-out: % Control (1µM)
T11 construct: purchased DiscoveRx KINOMEscan (scanEDGE); Thermo Fisher SelectScreen (Z'-LYTE) for PLK-1
Protocol: as §1

MKNK2 = molecular target: T12, MKNK2 (Homo sapiens, UniProt Q9HBH9); assay: KINOMEscan scanEDGE; assay type: binding; conditions: read-out: % Control (1µM)
T12 construct: purchased DiscoveRx KINOMEscan (scanEDGE); Thermo Fisher SelectScreen (Z'-LYTE) for PLK-1
Protocol: as §1

RET = molecular target: T13, RET (Homo sapiens, UniProt P07949); assay: KINOMEscan scanEDGE; assay type: binding; conditions: read-out: % Control (1µM)
T13 construct: purchased DiscoveRx KINOMEscan (scanEDGE); Thermo Fisher SelectScreen (Z'-LYTE) for PLK-1
Protocol: as §1

ACVR1B = molecular target: T14, ACVR1B (Homo sapiens, UniProt P36896); assay: KINOMEscan scanEDGE; assay type: binding; conditions: read-out: % Control (1µM)
T14 construct: purchased DiscoveRx KINOMEscan (scanEDGE); Thermo Fisher SelectScreen (Z'-LYTE) for PLK-1
Protocol: as §1

MEK2 = molecular target: T15, MEK2 (Homo sapiens, UniProt P36507); assay: KINOMEscan scanEDGE; assay type: binding; conditions: read-out: % Control (1µM)
T15 construct: purchased DiscoveRx KINOMEscan (scanEDGE); Thermo Fisher SelectScreen (Z'-LYTE) for PLK-1
Protocol: as §1

ZAP70 = molecular target: T16, ZAP70 (Homo sapiens, UniProt P43403); assay: KINOMEscan scanEDGE; assay type: binding; conditions: read-out: % Control (1µM)
T16 construct: purchased DiscoveRx (DiscoverX)
T16 sequence (P43403 whole entry): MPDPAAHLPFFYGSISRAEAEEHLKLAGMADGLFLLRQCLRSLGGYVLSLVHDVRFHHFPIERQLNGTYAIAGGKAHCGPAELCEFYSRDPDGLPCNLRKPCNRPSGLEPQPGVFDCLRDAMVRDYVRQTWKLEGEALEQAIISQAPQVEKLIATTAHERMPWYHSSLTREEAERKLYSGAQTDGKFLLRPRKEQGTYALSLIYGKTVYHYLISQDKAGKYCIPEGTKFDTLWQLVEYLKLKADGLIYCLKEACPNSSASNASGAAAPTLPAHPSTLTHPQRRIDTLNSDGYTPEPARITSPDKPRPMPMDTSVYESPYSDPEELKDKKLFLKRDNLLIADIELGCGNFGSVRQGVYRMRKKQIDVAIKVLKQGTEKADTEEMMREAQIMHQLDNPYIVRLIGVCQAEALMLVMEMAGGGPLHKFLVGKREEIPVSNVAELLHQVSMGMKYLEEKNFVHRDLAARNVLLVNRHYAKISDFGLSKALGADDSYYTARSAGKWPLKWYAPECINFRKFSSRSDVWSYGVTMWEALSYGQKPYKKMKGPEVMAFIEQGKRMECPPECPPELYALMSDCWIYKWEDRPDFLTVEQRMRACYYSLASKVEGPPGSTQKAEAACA
Protocol: as §1

LKB1 = molecular target: T17, LKB1 (Homo sapiens, UniProt Q15831); assay: KINOMEscan scanEDGE; assay type: binding; conditions: read-out: % Control (1µM)
T17 construct: purchased DiscoveRx KINOMEscan (scanEDGE); Thermo Fisher SelectScreen (Z'-LYTE) for PLK-1
T17 sequence (Q15831 whole entry): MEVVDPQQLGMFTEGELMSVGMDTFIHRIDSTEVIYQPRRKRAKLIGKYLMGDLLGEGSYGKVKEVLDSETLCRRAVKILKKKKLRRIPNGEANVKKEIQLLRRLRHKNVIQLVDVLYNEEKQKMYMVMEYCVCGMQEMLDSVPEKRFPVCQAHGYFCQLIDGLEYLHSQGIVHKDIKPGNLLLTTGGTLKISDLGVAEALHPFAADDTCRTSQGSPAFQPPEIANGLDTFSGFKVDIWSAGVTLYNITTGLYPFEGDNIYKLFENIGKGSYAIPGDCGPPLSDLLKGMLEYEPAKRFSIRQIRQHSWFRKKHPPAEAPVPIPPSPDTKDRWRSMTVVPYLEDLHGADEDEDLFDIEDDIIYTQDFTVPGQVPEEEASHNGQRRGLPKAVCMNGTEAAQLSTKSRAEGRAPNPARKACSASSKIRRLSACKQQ
Protocol: as §1

IKK-beta = molecular target: T18, IKK-beta (Homo sapiens, UniProt O14920); assay: KINOMEscan scanEDGE; assay type: binding; conditions: read-out: % Control (1µM)
T18 construct: purchased DiscoveRx KINOMEscan (scanEDGE); Thermo Fisher SelectScreen (Z'-LYTE) for PLK-1
Protocol: as §1

PIK3CA = molecular target: T19, PIK3CA (Homo sapiens, UniProt P42336); assay: KINOMEscan scanEDGE; assay type: binding; conditions: read-out: % Control (1µM)
T19 construct: purchased DiscoveRx KINOMEscan (scanEDGE); Thermo Fisher SelectScreen (Z'-LYTE) for PLK-1
Protocol: as §1

EGFR = molecular target: T20, EGFR (Homo sapiens, UniProt P00533); assay: KINOMEscan scanEDGE; assay type: binding; conditions: read-out: % Control (1µM)
T20 construct: purchased DiscoveRx KINOMEscan (scanEDGE); Thermo Fisher SelectScreen (Z'-LYTE) for PLK-1
T20 sequence (P00533 25-1210): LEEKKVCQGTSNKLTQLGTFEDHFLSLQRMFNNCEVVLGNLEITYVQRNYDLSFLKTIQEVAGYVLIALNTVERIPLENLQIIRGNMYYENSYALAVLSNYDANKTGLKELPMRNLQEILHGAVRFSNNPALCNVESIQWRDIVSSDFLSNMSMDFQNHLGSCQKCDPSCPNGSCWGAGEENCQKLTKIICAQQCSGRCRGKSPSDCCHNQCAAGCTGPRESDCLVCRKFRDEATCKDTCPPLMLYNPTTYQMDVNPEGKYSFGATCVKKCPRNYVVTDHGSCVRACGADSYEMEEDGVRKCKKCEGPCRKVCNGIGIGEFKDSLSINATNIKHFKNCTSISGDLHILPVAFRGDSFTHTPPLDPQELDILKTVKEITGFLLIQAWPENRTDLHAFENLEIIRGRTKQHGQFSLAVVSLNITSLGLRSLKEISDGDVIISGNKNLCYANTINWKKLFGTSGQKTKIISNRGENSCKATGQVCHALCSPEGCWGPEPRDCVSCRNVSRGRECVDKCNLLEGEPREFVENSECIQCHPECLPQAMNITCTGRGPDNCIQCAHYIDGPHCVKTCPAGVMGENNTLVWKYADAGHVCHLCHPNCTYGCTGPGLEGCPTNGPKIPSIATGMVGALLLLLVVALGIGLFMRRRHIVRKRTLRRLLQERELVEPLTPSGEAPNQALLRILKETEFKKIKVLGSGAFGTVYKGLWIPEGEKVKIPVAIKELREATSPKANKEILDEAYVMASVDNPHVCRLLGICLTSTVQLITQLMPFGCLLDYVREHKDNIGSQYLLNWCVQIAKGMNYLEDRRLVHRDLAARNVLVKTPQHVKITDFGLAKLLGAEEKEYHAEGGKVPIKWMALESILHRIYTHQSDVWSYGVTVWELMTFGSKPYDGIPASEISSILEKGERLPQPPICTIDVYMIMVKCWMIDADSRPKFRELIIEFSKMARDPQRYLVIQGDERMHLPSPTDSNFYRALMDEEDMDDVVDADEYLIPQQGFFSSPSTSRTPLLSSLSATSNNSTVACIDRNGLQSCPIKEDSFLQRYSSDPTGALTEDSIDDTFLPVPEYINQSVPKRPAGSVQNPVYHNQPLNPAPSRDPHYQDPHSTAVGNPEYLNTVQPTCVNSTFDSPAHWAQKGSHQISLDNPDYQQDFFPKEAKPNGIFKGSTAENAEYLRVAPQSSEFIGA
Protocol: as §1

SRPK3 = molecular target: T21, SRPK3 (Homo sapiens, UniProt Q9UPE1); assay: KINOMEscan scanEDGE; assay type: binding; conditions: read-out: % Control (1µM)
T21 construct: purchased DiscoveRx KINOMEscan (scanEDGE); Thermo Fisher SelectScreen (Z'-LYTE) for PLK-1
Protocol: as §1

DYRK1B = molecular target: T22, DYRK1B (Homo sapiens, UniProt Q9Y463); assay: KINOMEscan scanEDGE; assay type: binding; conditions: read-out: % Control (1µM)
T22 construct: purchased DiscoveRx KINOMEscan (scanEDGE); Thermo Fisher SelectScreen (Z'-LYTE) for PLK-1
Protocol: as §1

FAK = molecular target: T23, FAK (Homo sapiens, UniProt Q05397); assay: KINOMEscan scanEDGE; assay type: binding; conditions: read-out: % Control (1µM)
T23 construct: purchased DiscoveRx KINOMEscan (scanEDGE); Thermo Fisher SelectScreen (Z'-LYTE) for PLK-1
Protocol: as §1

ROCK2 = molecular target: T24, ROCK2 (Homo sapiens, UniProt O75116); assay: KINOMEscan scanEDGE; assay type: binding; conditions: read-out: % Control (1µM)
T24 construct: purchased DiscoveRx KINOMEscan (scanEDGE); Thermo Fisher SelectScreen (Z'-LYTE) for PLK-1
Protocol: as §1

[3] = molecular target: T25, JAK3(JH1domain-catalytic) (Homo sapiens, UniProt P52333); assay: KINOMEscan scanEDGE; assay type: binding; conditions: read-out: % Control (1µM)
T25 construct: JAK3(JH1domain-catalytic); purchased DiscoveRx KINOMEscan (scanEDGE); Thermo Fisher SelectScreen (Z'-LYTE) for PLK-1
Protocol: as §1

PIM2 = molecular target: T26, PIM2 (Homo sapiens, UniProt Q9P1W9); assay: KINOMEscan scanEDGE; assay type: binding; conditions: read-out: % Control (1µM)
T26 construct: purchased DiscoveRx KINOMEscan (scanEDGE); Thermo Fisher SelectScreen (Z'-LYTE) for PLK-1
Protocol: as §1

AXL = molecular target: T27, AXL (Homo sapiens, UniProt P30530); assay: KINOMEscan scanEDGE; assay type: binding; conditions: read-out: % Control (1µM)
T27 construct: purchased DiscoveRx KINOMEscan (scanEDGE); Thermo Fisher SelectScreen (Z'-LYTE) for PLK-1
Protocol: as §1

PKAC-alpha = molecular target: T28, PKAC-alpha (Homo sapiens, UniProt P17612); assay: KINOMEscan scanEDGE; assay type: binding; conditions: read-out: % Control (1µM)
T28 construct: purchased DiscoveRx KINOMEscan (scanEDGE); Thermo Fisher SelectScreen (Z'-LYTE) for PLK-1
Protocol: as §1

ULK2 = molecular target: T29, ULK2 (Homo sapiens, UniProt Q8IYT8); assay: KINOMEscan scanEDGE; assay type: binding; conditions: read-out: % Control (1µM)
T29 construct: purchased DiscoveRx (DiscoverX)
Protocol: as §1

AKT1 = molecular target: T30, AKT1 (Homo sapiens, UniProt P31749); assay: KINOMEscan scanEDGE; assay type: binding; conditions: read-out: % Control (1µM)
T30 construct: purchased DiscoveRx KINOMEscan (scanEDGE); Thermo Fisher SelectScreen (Z'-LYTE) for PLK-1
Protocol: as §1

JNK1 = molecular target: T31, JNK1 (Homo sapiens, UniProt P45983); assay: KINOMEscan scanEDGE; assay type: binding; conditions: read-out: % Control (1µM)
T31 construct: purchased DiscoveRx KINOMEscan (scanEDGE); Thermo Fisher SelectScreen (Z'-LYTE) for PLK-1
Protocol: as §1

HeLa cells = assay: Mitotic arrest and mitotic markers in HeLa cells (Western blot); assay type: cell-based
Protocol: Protein extracts of cells were prepared by lysis in radioimmunoprecipitation assay buffer (Sigma) supplemented with protease inhibitors (complete protease inhibitor cocktail, Roche). Protein extracts (25 μg) were separated by sodium dodecyl sulfate-polyacrylamide gel electrophoresis and transferred onto poly(vinylidene difluoride) membranes using the Trans-Blot Turbo transfer system (BioRad). After blocking with 5% bovine serum albumin in PBS with 0.1% Tween-20 for 30 min, the membrane was incubated with primary antibodies for 1 h at room temperature. Horseradish peroxidase-linked secondary antibodies were incubated 30 min at room temperature followed by enhanced chemiluminescence (ECL) detection (ECL Western blot substrate, Pierce).
Primary antibodies were obtained from the following sources: PLK-1 (05-844) and phosphohistone H3 (Ser10) (05806) from Millipore; pPlk1-T210 (5472) from Cell Signaling; pPlk1-S137 (21738) from Abcam; and cyclin B1 (GNS1) and β-actin (A2228) from Sigma-Aldrich served as loading control.

ALK WT, sequence (Q9UM73 19-1620): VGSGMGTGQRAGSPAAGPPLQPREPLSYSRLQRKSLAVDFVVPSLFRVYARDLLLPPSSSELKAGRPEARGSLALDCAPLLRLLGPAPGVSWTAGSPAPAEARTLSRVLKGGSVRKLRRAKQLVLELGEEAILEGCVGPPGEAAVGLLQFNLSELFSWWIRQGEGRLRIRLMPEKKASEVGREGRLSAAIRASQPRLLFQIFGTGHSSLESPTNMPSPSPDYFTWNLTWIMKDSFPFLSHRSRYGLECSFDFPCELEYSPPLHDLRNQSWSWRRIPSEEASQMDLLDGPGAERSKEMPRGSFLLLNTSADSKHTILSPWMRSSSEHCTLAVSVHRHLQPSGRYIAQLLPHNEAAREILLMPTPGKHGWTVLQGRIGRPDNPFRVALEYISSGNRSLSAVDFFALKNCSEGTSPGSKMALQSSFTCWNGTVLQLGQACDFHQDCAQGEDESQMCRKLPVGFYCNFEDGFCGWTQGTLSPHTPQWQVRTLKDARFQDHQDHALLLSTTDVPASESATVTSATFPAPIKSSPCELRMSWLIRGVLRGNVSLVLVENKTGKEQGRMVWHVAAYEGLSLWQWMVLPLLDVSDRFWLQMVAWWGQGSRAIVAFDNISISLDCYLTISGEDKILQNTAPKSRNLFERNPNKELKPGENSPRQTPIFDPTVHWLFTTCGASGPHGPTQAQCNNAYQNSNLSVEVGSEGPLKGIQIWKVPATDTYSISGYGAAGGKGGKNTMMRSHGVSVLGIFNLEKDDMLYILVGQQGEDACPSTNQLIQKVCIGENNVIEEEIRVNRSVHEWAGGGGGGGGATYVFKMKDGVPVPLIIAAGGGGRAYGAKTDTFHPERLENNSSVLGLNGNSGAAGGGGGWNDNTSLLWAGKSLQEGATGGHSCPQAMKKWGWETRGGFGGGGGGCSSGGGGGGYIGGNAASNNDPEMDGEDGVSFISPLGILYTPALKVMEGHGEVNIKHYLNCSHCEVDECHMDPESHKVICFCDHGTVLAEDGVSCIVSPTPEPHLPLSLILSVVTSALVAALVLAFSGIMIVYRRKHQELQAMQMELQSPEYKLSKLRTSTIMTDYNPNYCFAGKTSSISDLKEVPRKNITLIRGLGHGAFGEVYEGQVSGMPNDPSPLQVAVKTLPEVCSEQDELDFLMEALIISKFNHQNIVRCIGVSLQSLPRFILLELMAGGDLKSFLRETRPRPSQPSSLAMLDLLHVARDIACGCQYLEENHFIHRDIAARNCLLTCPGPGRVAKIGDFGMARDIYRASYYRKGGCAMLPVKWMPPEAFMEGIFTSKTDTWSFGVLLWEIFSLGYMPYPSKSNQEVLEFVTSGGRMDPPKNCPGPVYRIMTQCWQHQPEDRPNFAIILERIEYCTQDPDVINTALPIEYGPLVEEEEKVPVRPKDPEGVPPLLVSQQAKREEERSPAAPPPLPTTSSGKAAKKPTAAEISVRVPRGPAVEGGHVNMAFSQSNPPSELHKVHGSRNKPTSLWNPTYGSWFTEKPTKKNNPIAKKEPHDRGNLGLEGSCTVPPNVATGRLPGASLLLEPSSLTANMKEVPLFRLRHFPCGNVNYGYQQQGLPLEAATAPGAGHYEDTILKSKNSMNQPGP

IC50 (ALK WT): 60 ± 12 nM
PAMPA pH7.4 (PAMPA permeability assay): 49 × 10^–6 cm/s
remaining binding at 1 µM (CSF1R): 100%
remaining binding at 1 µM [1]: 100%
remaining binding at 1 µM (ERBB4): 93%
remaining binding at 1 µM [2]: 83%
remaining binding at 1 µM (RAF1): 100%
remaining binding at 1 µM (PIK3C2B): 88%
remaining binding at 1 µM (PAK1): 100%
remaining binding at 1 µM (PIK3CG): 98%
remaining binding at 1 µM (KIT(D816V)): 100%
remaining binding at 1 µM (FLT3): 100%
remaining binding at 1 µM (BRAF(V600E)): 98%
remaining binding at 1 µM (MKNK2): 60%
remaining binding at 1 µM (RET): 99%
remaining binding at 1 µM (ACVR1B): 85%
remaining binding at 1 µM (MEK2): 100%
remaining binding at 1 µM (ZAP70): 94%
remaining binding at 1 µM (LKB1): 82%
remaining binding at 1 µM (IKK-beta): 100%
remaining binding at 1 µM (PIK3CA): 96%
remaining binding at 1 µM (EGFR): 86%
remaining binding at 1 µM (SRPK3): 100%
remaining binding at 1 µM (DYRK1B): 63%
remaining binding at 1 µM (FAK): 60%
remaining binding at 1 µM (ROCK2): 100%
remaining binding at 1 µM [3]: 100%
remaining binding at 1 µM (PIM2): 86%
remaining binding at 1 µM (AXL): 98%
remaining binding at 1 µM (PKAC-alpha): 100%
remaining binding at 1 µM (ULK2): 64%
remaining binding at 1 µM (AKT1): 96%
remaining binding at 1 µM (JNK1): 64%
Structure (SMILES): CCOc1cc(C2CCN(C)CC2)ccc1Nc1ncc2c(n1)N(Cc1cc(C)cs1)[C@H](CC)C(=O)N2C [16k, (R)-2-((2-Ethoxy-4-(1-methylpiperidin-4-yl)phenyl)amino)-7-ethyl-5-methyl-8-((4-methylthiophen-2-yl)methyl)-7,8-dihydropteridin-6(5H)-one]
concentration up to which no increase in mitotic markers and PLK-1 phosphorylation sites (HeLa cells; HeLa cells, Western blot): > 10 µM
selectivity window for ALK^F1174L over PLK-1 in cells (HeLa cells; based on the cellular data): 10–20 fold
expected cellular PLK-1 potency after similar drop-off (HeLa cells; extrapolated from BI-2536 drop-off): > 2500 nM
